Experimental data published in ChEMBL document CHEMBL5365507, “New Horizons in Cancer Treatment: A Closer Look at Novel PI3Kα Inhibitors” (ACS Med Chem Lett, 2023).

Legend:
[1] = target: T1, Phosphatidylinositol 4,5-bisphosphate 3-kinase catalytic subunit alpha isoform (Homo sapiens, UniProt P42336); assay: Inhibition of PIK3CA (unknown origin) expressed in MCF-10A cells incubated for 2 hrs by HTRF method; format: cell-based
[2] = target: T1, Phosphatidylinositol 4,5-bisphosphate 3-kinase catalytic subunit alpha isoform; assay: Inhibition of PIK3CA (unknown origin) using diC8-PIP2 as substrate preincubated for 30 mins followed by substrate addition and measured after 60 mins by ADP-Glo assay

T1 sequence (P42336 whole entry, canonical isoform): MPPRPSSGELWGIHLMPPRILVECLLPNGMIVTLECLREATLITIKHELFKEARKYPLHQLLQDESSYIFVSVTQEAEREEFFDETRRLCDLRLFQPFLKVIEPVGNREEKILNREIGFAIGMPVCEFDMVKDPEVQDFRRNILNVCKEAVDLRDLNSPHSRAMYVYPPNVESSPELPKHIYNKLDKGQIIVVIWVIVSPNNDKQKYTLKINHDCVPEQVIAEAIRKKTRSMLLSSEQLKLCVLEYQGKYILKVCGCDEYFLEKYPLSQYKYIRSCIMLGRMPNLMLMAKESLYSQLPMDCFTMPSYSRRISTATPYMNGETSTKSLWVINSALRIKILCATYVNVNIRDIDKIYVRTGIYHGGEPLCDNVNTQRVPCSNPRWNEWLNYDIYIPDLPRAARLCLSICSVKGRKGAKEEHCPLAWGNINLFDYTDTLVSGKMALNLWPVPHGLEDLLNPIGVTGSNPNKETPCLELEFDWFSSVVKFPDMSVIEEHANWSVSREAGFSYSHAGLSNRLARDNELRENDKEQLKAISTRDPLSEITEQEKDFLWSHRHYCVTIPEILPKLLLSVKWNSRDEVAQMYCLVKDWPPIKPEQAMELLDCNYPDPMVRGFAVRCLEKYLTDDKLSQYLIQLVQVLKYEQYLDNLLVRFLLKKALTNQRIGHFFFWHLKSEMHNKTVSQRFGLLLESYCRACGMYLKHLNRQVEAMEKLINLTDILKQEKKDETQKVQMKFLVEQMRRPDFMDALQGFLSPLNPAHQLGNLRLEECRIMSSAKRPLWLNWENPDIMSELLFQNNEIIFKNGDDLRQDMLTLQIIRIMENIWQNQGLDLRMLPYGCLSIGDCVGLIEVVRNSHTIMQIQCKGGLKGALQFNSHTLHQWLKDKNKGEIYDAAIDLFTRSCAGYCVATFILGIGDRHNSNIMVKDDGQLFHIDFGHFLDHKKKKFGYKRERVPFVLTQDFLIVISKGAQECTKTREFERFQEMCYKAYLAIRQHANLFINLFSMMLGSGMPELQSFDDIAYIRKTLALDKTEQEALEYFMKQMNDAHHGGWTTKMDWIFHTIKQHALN

IC50 [1] | IC50 [2] | SMILES
1 µM | 0.1 µM | Cc1ccccc1Nc1ncc(C(=O)NC2CC(F)(F)C2)cc1NC(=O)c1cc(F)cc(C(F)(F)F)c1
1 µM | ≤ 0.1 µM | Cc1ccccc1Nc1ncc(C(=O)NC2C[S+]([O-])C2)cc1NC(=O)c1csc2ccccc12 (centres undefined)
5 µM | ≤ 0.1 µM | Cc1ccccc1Nc1ncc(C(=O)NCc2nccs2)cc1NC(=O)c1csc2ccccc12
≤ 1 µM | 0.1 µM | Cc1ccccc1Nc1ncc(C(=O)Nc2ccncc2)cc1NC(=O)c1cc(F)cc(C(F)(F)F)c1
1 µM | 0.1 µM | Cc1ccccc1Nc1ncc(C(=O)NCc2ccc(Cl)cc2)cc1NC(=O)c1csc2ccccc12
1 µM | 0.1 µM | Cc1ccccc1Nc1ncc(C(=O)NCC2CC(F)(F)C2)cc1NC(=O)c1cc(F)cc(C(F)(F)F)c1
1 µM | 0.1 µM | Cc1ccccc1Nc1ncc(C(=O)NCc2ccnn2C)cc1NC(=O)c1cc(F)cc(C(F)(F)F)c1
1 µM | ≤ 0.1 µM | Cc1ccccc1Nc1ncc(C(=O)NC2CS(=O)(=O)C2)cc1NC(=O)c1csc2ccccc12
1 µM | 0.1 µM | Cc1ccccc1Nc1ncc(C(=O)NCc2ccn(C)n2)cc1NC(=O)c1cc(F)cc(C(F)(F)F)c1
≤ 1 µM | ≤ 0.1 µM | Cc1ccccc1Nc1ncc(C(=O)NC2CS(=O)(=O)C2)cc1NC(=O)c1cc(F)cc(C(F)(F)F)c1
1 µM | 0.1 µM | Cc1ccccc1Nc1ncc(C(=O)NCc2ccnn2C)cc1NC(=O)c1csc2ccccc12
1 µM | 0.1 µM | Cc1ccccc1Nc1ncc(-c2cncc(C#N)c2)cc1NC(=O)c1cc(F)cc(C(F)(F)F)c1
